The record followed here is patent US10597366B2, “Aryl ethers and uses thereof” (Peloton Therapeutics, Inc., priority 2013, dated 2020).

Where only a bound is given, the exact number is not on record here.

The first assay relates to 786-O-Hif-Luc cells (luciferase gene driven by multiple HIF responsive elements). The assay can be described thus: Luciferase Assay. The format is cell-based. The note with it: 24 h, 786-O-Hif-Luc cells, about 24 hours; read-out: Mean Luciferease EC50. The method, then: A pool of infected cells were then selected against 2 μg/mL of puromycin (P8833, Sigma) for 10 days followed by limited dilution to select single clones.
Each concentration was tested in triplicate. After about 24 hours, luciferase activity was determined using ONE-Glo Luciferase Assay Reagent (E6110, Promega) following the manufacturer's recommended procedure. EC50 were calculated by using Dotmatics software.
In general, EC50 refers to the concentration that produces a half-maximal response. Turning to `CS(=O)(=O)c1ccc(Oc2cc(F)cc(C#N)c2)c2c1[C@H](O)C(F)(F)[C@@H]2O` [Compound 312, 3-[(1S,3R)-2,2-difluoro-1,3-dihydroxy-7-methylsulfonyl-indan-4-yl]oxy-5-fluoro-benzonitrile], the EC50 amounted to 630 nM. Still for that read-out and setting: with `CCS(=O)(=O)c1ccc(Oc2cc(F)cc(Cl)c2)c2c1C(O)CC2` (centres unmarked) [Compound 91, 4-(3-Chloro-5-fluorophenoxy)-7-(ethylsulfonyl)-2,3-dihydro-1H-inden-1-ol] the figure was 2300 nM; with `N#Cc1cc(F)cc(Oc2ccc(S(N)(=O)=O)c3c2[C@@H](F)[C@@H](F)[C@H]3O)c1` [Compound 336, (1R,2S,3S)-7-(3-cyano-5-fluoro-phenoxy)-1,2-difluoro-3-hydroxy-indane-4-sulfonamide], 67 nM. Take `Cc1cc(Oc2ccc(S(=O)(=O)C(F)F)c3c2CC(F)(F)[C@H]3O)ccc1F` [Compound 198, (S)-7-((Difluoromethyl)sulfonyl)-2,2-difluoro-4-(4-fluoro-3-methylphenoxy)-2,3-dihydro-1H-inden-1-ol]: the EC50 amounted to 290 nM.

With `CS(=O)(=NC#N)c1ccc(Oc2cc(F)cc(C#N)c2)c2c1[C@H](O)[C@H](F)C2` (stereo partly drawn) [Compound 302, N-(((2R,3S)-7-(3-cyano-5-fluorophenoxy)-2-fluoro-3-hydroxy-2,3-dihydro-1H-inden-4-yl)(methyl)(oxo)-λ^6-sulfanylidene)cyanamide], the EC50 was determined as 110 nM. On to `N#Cc1cccc(Oc2ccc(S(=O)(=O)C(F)F)c(C#N)c2Cl)c1` [Compound 40, 2-Chloro-3-(3-cyanophenoxy)-6-((difluoromethyl)sulfonyl)benzonitrile], for which the EC50 amounted to 1200 nM. For the compound `Cn1cc(Oc2ccc(S(=O)(=O)C(F)(F)F)c3c2CC(F)(F)[C@H]3O)cn1` [Compound 224, (S)-2,2-Difluoro-4-((1-methyl-1H-pyrazol-4-yl)oxy)-7-((trifluoromethyl)sulfonyl)-2,3-dihydro-1H-inden-1-ol], the EC50 is 180 nM. In the case of `N#Cc1cncc(Oc2ccc(S(=O)(=O)C(F)(F)F)c3c2CCC3O)c1` (centres unmarked) [Compound 220, 5-((1-Hydroxy-7-((trifluoromethyl)sulfonyl)-2,3-dihydro-1H-inden-4-yl)oxy)nicotinonitrile], the EC50 is 2100 nM. On the same count and under the same terms, under `N#Cc1cc(F)cc(Oc2ccc(S(N)(=O)=O)c3c2C[C@@H](F)[C@H]3O)c1` [Compound 334, (2R,3S)-7-(3-cyano-5-fluoro-phenoxy)-2-fluoro-3-hydroxy-indane-4-sulfonamide] stands 220 nM; under `CS(=O)(=O)c1ccc(Oc2cc(F)cc(Cl)c2)c2c1[C@H](O)C(F)(F)C2` [Compound 160, (1S)-4-(3-Chloro-5-fluoro-phenoxy)-2,2-difluoro-7-methylsulfonyl-indan-1-ol], 10 nM.

Consider `N#Cc1c(Oc2cc(F)cc(Cl)c2)ccc(S(=O)(=O)C(F)F)c1CO` [Compound 35, 6-(3-Chloro-5-fluorophenoxy)-3-((difluoromethyl)sulfonyl)-2-(hydroxymethyl)benzonitrile], for which the EC50 is greater than 20000 nM. Take `O=S(=O)(c1ccc(Oc2cccc3[nH]ncc23)c2c1[C@H](O)C(F)(F)C2)C(F)(F)F` [Compound 263, (S)-4-((1H-Indazol-4-yl)oxy)-2,2-difluoro-7-((trifluoromethyl)sulfonyl)-2,3-dihydro-1H-inden-1-ol]: the EC50 is 780 nM.

Regarding `CS(=O)(=O)c1ccc(Oc2cc(F)cc(C#N)c2)c2c1C(=O)C(F)(Cl)C2` (centres unmarked) [Compound 269, 3-((2-chloro-2-fluoro-7-(methylsulfonyl)-1-oxo-2,3-dihydro-1H-inden-4-yl)oxy)-5-fluorobenzonitrile], the EC50 is 19400 nM. For `N#Cc1cc(F)cc(Oc2ccc(S(=O)(=O)C(F)F)c3c2CCC3F)c1` (centres unmarked) [Compound 202, 3-((7-((Difluoromethyl)sulfonyl)-1-fluoro-2,3-dihydro-1H-inden-4-yl)oxy)-5-fluorobenzonitrile], the EC50 was 3600 nM.

Consider `Cc1c(S(C)(=O)=O)ccc(Oc2cc(F)cc(Cl)c2)c1C(F)F` [Compound 53, 1-(3-Chloro-5-fluorophenoxy)-2-(difluoromethyl)-3-methyl-4-(methylsulfonyl)benzene], for which the half-maximal effective concentration (EC50) was determined as 3300 nM. Regarding `CS(=O)(=O)c1ccc(Oc2cc(F)cc(F)c2)c(C(F)F)c1C#N` [Compound 93, 2-(Difluoromethyl)-3-(3,5-difluorophenoxy)-6-(methylsulfonyl)benzonitrile], the half-maximal effective concentration (EC50) turned out to be 680 nM. Same read-out and setting: with `O=S(=O)(c1ccc(Oc2cc(F)cc(Cl)c2)c(Br)c1C=NO)C(F)(F)F` [Compound 107, 2-Bromo-3-(3-chloro-5-fluorophenoxy)-6-((trifluoromethyl)sulfonyl)benzaldehyde oxime] the figure was 520 nM; with `CS(=O)(=O)c1ccc(Oc2cc(F)cc(C#N)c2)c2c1[C@H](O)C(F)(Cl)C2` (stereo partly drawn) [Compound 270, 3-(((1S)-2-chloro-2-fluoro-1-hydroxy-7-(methylsulfonyl)-2,3-dihydro-1H-inden-4-yl)oxy)-5-fluorobenzonitrile], 100 nM. On to `O=S(=O)(CF)c1ccc(Oc2cc(F)cc(Cl)c2)c2c1[C@H](O)CC2` [Compound 61, (R)-4-(3-Chloro-5-fluorophenoxy)-7-((fluoromethyl)sulfonyl)-2,3-dihydro-1H-inden-1-ol], for which the EC50 is 110 nM.

Consider `N#Cc1cc(F)cc(Oc2ccc(S(=O)(=O)C(F)(F)F)c3c2[C@@H](N)C[C@H]3O)c1` (relative stereo) [Compound 279, 3-((cis-3-amino-1-hydroxy-7-((trifluoromethyl)sulfonyl)-2,3-dihydro-1H-inden-4-yl)oxy)-5-fluorobenzonitrile], for which the 50% effective concentration (EC50) is 5900 nM.

`N#Cc1cc(F)cc(Oc2ccc(S(=O)(=O)C(F)F)c(CO)c2Cl)c1` [Compound 42, 3-(2-Chloro-4-((difluoromethyl)sulfonyl)-3-(hydroxymethyl)phenoxy)-5-fluorobenzonitrile]: the EC50 was determined as 450 nM. Same read-out and setting: with `COC(=O)/C=C/c1c(S(=O)(=O)C(F)(F)F)ccc(Oc2cc(F)cc(C#N)c2)c1C` [Compound 147, Methyl (E)-3-[3-(3-cyano-5-fluoro-phenoxy)-2-methyl-6-(trifluoromethylsulfonyl)phenyl]prop-2-enoate] the figure was 7600 nM.

As for `O=S(=O)(c1ccc(Oc2ccc(F)cc2)c2c1C(O)CC2)C(F)(F)F` (centres unmarked) [Compound 212, 4-(4-Fluorophenoxy)-7-((trifluoromethyl)sulfonyl)-2,3-dihydro-1H-inden-1-ol], the EC50 is 1600 nM.

Take `C[S+]([O-])c1ccc(Oc2cc(F)cc(C#N)c2)c2c1[C@H](O)C(F)(F)C2` (stereo partly drawn) [Compound 272, 3-[(1S)-2,2-Difluoro-1-hydroxy-7-methylsulfinyl-indan-4-yl]oxy-5-fluoro-benzonitrile]: the EC50 was 2280 nM. On the same count and under the same terms, under `Cc1c(Oc2cc(F)cc(Cl)c2)ccc(S(=O)(=O)C(F)(F)F)c1Br` [Compound 140, 3-Bromo-1-(3-chloro-5-fluoro-phenoxy)-2-methyl-4-(trifluoromethylsulfonyl)benzene] stands 2400 nM; under `N#Cc1cc(Oc2ccc(S(=O)(=O)C(F)F)c3c2CC(F)(F)[C@H]3O)ccc1F` [Compound 200, (S)-5-((7-((Difluoromethyl)sulfonyl)-2,2-difluoro-1-hydroxy-2,3-dihydro-1H-inden-4-yl)oxy)-2-fluorobenzonitrile], 130 nM; under `N#Cc1cc(F)cc(Oc2ccc(S(=O)(=O)C(F)F)cc2C#N)c1` [Compound 134, 2-(3-Cyano-5-fluorophenoxy)-5-((difluoromethyl)sulfonyl)benzonitrile], 2300 nM.

Consider `N#Cc1cc(F)cc(Oc2ccc(S(=O)(=O)C3CCC3)c3c2CC(F)(F)[C@H]3O)c1` [Compound 209, (S)-3-((7-(Cyclobutylsulfonyl)-2,2-difluoro-1-hydroxy-2,3-dihydro-1H-inden-4-yl)oxy)-5-fluorobenzonitrile], for which the EC50 was determined as 1900 nM. As for `CC(=O)c1c(S(=O)(=O)C(F)(F)F)ccc(Oc2cc(F)cc(Cl)c2)c1Br` [Compound 104, 1-(2-Bromo-3-(3-chloro-5-fluorophenoxy)-6-((trifluoromethyl)sulfonyl)phenyl)ethan-1-one], the half-maximal effective concentration (EC50) was determined as 12100 nM.

Still in this assay, the particulars now being: 24 h, read-out: Mean Luciferease EC50.
On to `N#Cc1cc(F)cc(Oc2ccc(S(N)(=O)=O)c3c2[C@H](F)C(F)(F)[C@H]3O)c1` [Compound 339, (1S,3S)-7-(3-cyano-5-fluoro-phenoxy)-1,2,2-trifluoro-3-hydroxy-indane-4-sulfonamide], for which the concentration giving a half-maximal response (EC50) was found to be 250 nM. For `CS(=O)(=O)c1ccc(Oc2cc(F)cc(C#N)c2)c2c1[C@H](O)[C@H](F)[C@@H]2F` [Compound 289, 3-[(1S,2S,3R)-2,3-difluoro-1-hydroxy-7-methylsulfonyl-indan-4-yl]oxy-5-fluoro-benzonitrile], the EC50 was determined as 4.2 nM. On to `CCS(=O)(=O)c1ccc(Oc2cc(F)cc(C#N)c2)c2c1[C@H](O)C(F)(F)C2` [Compound 206, (S)-3-((7-(Ethylsulfonyl)-2,2-difluoro-1-hydroxy-2,3-dihydro-1H-inden-4-yl)oxy)-5-fluorobenzonitrile], for which the concentration giving a half-maximal response (EC50) is 62 nM. Still for that read-out and setting: with `CS(=O)(=O)c1ccc(Oc2cc(F)cc(C#N)c2)c2c1[C@H](O)C(F)(F)C2` [Compound 163, (S)-3-((2,2-Difluoro-1-hydroxy-7-(methylsulfonyl)-2,3-dihydro-1H-inden-4-yl)oxy)-5-fluorobenzonitrile] the figure was 23 nM. Take `NS(=O)(=O)c1ccc(Oc2cc(F)cc(F)c2)c2c1[C@H](O)C(F)(F)C2` [Compound 256, (S)-7-(3,5-Difluorophenoxy)-2,2-difluoro-3-hydroxy-2,3-dihydro-1H-indene-4-sulfonamide]: the 50% effective concentration (EC50) turned out to be 49 nM. For `CNS(=O)(=O)c1ccc(Oc2cc(F)cc(C#N)c2)c2c1[C@H](O)C(F)(F)C2` [Compound 254, (S)-7-(3-Cyano-5-fluorophenoxy)-2,2-difluoro-3-hydroxy-N-methyl-2,3-dihydro-1H-indene-4-sulfonamide], the EC50 came out at 120 nM.
